Laboratory results from the NIST ThermoML archive (doi:10.1016/j.jct.2011.02.008).

Experiment: xn = mol fraction of the nth substance listed
Settings: Liquid, Vibrating tube method

COC(=O)c1ccccc1 [methyl benzoate] + C1CCCCC1
mass density [kg/m3]
Settings	x1 = 0.0985	x1 = 0.1963	x1 = 0.2939	x1 = 0.3942	x1 = 0.4955	x1 = 0.596	x1 = 0.6975	x1 = 0.7993	x1 = 0.8982
278.15 K, 100 kPa	823.9	855.7	887.6	919.6	951.4	983.4	1014.3	1043.9	1072.7
278.15 K, 1000 kPa	824.5	856.4	888.3	920.2	952	984	1014.9	1044.4	1073.2
278.15 K, 5000 kPa	827.6	859.3	891.2	923	954.8	986.7	1017.4	1046.9	1075.6
278.15 K, 10000 kPa	831.2	863	894.7	926.4	958	989.9	1020.5	1049.8	1078.5
278.15 K, 15000 kPa	834.6	866.3	898	929.7	961.2	993	1023.5	1052.8	1081.3
278.15 K, 20000 kPa	838	869.6	901.3	932.8	964.3	996	1026.4	1055.6	1084.1
278.15 K, 25000 kPa	841.2	872.8	904.4	935.9	967.3	998.9	1029.3	1058.3	1086.7
278.15 K, 30000 kPa	844.4	875.9	907.4	938.9	970.2	1001.7	1032	1061	1089.3
278.15 K, 35000 kPa	847.4	878.9	910.4	941.8	973	1004.5	1034.7	1063.6	1091.9
278.15 K, 40000 kPa	850.5	881.8	913.3	944.6	975.8	1007.2	1037.4	1066.2	1094.4
278.15 K, 45000 kPa	–	884.6	916.1	947.4	978.5	1009.9	1040	1068.7	1096.9
278.15 K, 50000 kPa	–	887.4	918.8	950	981.1	1012.5	1042.5	1071.2	1099.3
278.15 K, 55000 kPa	–	890.1	921.5	952.7	983.7	1015	1045	1073.7	1101.7
278.15 K, 60000 kPa	–	892.6	923.9	955.1	986.3	1017.4	1047.3	1075.9	1103.8
288.15 K, 100 kPa	814.3	846.1	878	909.9	941.8	973.8	1004.7	1034.2	1063.1
288.15 K, 1000 kPa	815	846.9	878.7	910.6	942.4	974.5	1005.3	1034.8	1063.7
288.15 K, 5000 kPa	818.2	850	881.8	913.6	945.3	976.6	1008	1037.5	1066.2
288.15 K, 10000 kPa	822	853.8	885.5	917.2	948.8	980.7	1011.3	1040.6	1069.2
288.15 K, 15000 kPa	825.8	857.4	889.1	920.7	952.2	983.9	1014.4	1043.6	1072.2
288.15 K, 20000 kPa	829.2	860.9	892.5	924	955.4	987.1	1017.5	1046.6	1075
288.15 K, 25000 kPa	832.7	864.3	895.8	927.2	958.6	990.1	1020.5	1049.5	1077.9
288.15 K, 30000 kPa	836	867.5	899	930.3	961.6	993.1	1023.4	1052.3	1080.6
288.15 K, 35000 kPa	839.1	870.7	902.1	933.4	964.6	996	1026.2	1055	1083.3
288.15 K, 40000 kPa	842.2	873.7	905.1	936.3	967.5	998.8	1028.9	1057.7	1085.9
288.15 K, 45000 kPa	845.2	876.7	908	939.2	970.3	1001.6	1031.6	1060.3	1088.4
288.15 K, 50000 kPa	848.1	879.6	910.9	942	973	1004.3	1034.3	1062.9	1090.9
288.15 K, 55000 kPa	850.9	882.4	913.6	944.7	975.7	1006.9	1036.8	1065.5	1093.4
288.15 K, 60000 kPa	853.5	885	916.2	947.2	978.2	1009.3	1039.2	1067.8	1095.9
298.15 K, 100 kPa	804.8	836.5	868.4	900.3	932.2	964.2	995.1	1024.7	1053.6
298.15 K, 1000 kPa	805.6	837.3	869.2	901	932.9	964.9	995.8	1025.3	1054.2
298.15 K, 5000 kPa	809	840.7	872.5	904.2	935.9	967.9	998.6	1028.1	1056.9
298.15 K, 10000 kPa	813.1	844.7	876.3	908	939.6	971.4	1002	–	–
